Reference: US20070066543A1, “Treatment of tay sachs or sandhoff diseases by enhancing hexosaminidase activity” (The Hospital For Sick Children, priority 2003, published 2007)
Read-outs that look alike come from different tables or passages of the source. Each block holds one compound with its values, some of them ahead of it.

Columns and labels:
[1] = target: hexosaminidase A in wild type fibroblasts (Homo sapiens, UniProt P06865+P07686); experiment: Hexosaminidase A activity (MUGS) in wild type fibroblasts grown with compound; format: cell-based
hexosaminidase A in wild type fibroblasts, sequence (P07686 315-556 limits assumed, one chain of several): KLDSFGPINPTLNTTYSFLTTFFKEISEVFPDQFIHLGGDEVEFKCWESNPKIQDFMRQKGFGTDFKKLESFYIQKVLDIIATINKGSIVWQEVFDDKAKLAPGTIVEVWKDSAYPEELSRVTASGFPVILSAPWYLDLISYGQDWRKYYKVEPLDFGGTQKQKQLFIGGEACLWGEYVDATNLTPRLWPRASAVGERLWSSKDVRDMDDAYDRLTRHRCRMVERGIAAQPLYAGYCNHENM
hexosaminidase A in wild type fibroblasts, sequence (P07686 122-311 limits assumed, one chain of several): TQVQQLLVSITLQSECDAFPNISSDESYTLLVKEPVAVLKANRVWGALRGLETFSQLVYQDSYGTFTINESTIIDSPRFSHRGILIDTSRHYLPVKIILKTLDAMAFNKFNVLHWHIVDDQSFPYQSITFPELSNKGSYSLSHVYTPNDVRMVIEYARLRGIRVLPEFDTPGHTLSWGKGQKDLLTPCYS
hexosaminidase A in wild type fibroblasts, sequence (P07686 50-107 partner limits assumed, one chain of several): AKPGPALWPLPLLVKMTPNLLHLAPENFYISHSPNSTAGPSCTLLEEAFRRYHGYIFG

[2] = target: T1, hexosaminidase A/S in ISD cells (Homo sapiens, UniProt P06865); experiment: Hexosaminidase activity in infantile Sandhoff (ISD) fibroblasts grown with compound; format: cell-based
T1 construct: endogenous in cells; host or cells: infantile Sandhoff (ISD) patient fibroblasts
T1 sequence (P06865 89-529): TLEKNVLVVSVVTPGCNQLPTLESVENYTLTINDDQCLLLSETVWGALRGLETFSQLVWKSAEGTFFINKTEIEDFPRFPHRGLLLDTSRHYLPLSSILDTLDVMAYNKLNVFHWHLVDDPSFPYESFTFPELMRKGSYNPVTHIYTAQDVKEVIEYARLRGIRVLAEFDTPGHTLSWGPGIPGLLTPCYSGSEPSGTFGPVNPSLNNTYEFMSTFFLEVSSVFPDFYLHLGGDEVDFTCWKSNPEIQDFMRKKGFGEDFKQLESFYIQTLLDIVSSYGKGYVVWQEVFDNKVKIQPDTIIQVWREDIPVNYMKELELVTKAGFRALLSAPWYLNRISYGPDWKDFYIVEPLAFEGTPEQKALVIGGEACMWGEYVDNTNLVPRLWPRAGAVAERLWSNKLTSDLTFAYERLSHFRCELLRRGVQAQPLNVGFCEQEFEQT
T1 sequence (P06865 23-74 limits assumed): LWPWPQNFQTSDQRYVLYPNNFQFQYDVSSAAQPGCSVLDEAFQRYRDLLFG

[3] = test system: hexosaminidase A in ASD fibroblasts; experiment: Hexosaminidase activity in adult Sandhoff (ASD) fibroblasts grown with compound; format: cell-based, human; conditions: ASD cells
Protocol: Fibroblast cell lines obtained from homozygous adult onset Tay-Sachs (ATSD), heterozygous adult onset Tay-Sachs (Het ATSD), infantile Tay-Sachs (ITSD and 4917), adult Sandhoff (ASD) and infantile Sandhoff (ISD) were cultured in the presence of various concentrations of ACAS and then examined for hexosaminidase A activity as described above. ACAS treatment gave increased hexosaminidase A activity in ATSD, ASD and ISD cells.

[4] = test system: hexosaminidase A in ITSD fibroblasts; experiment: MUGS hydrolysis in infantile Tay-Sachs (ITSD) fibroblasts grown with compound; format: cell-based, human
[5] = test system: fibroblasts from a chronic TSD patient; conditions: human, 5 days
human hexosaminidase A = human hexosaminidase A (Homo sapiens, UniProt P06865+P07686); experiment: Ki on human hexosaminidase A; format: biochemical
human hexosaminidase A, sequence (P07686 315-556 limits assumed, one chain of several): as the sequence (P07686 315-556 limits assumed, one chain of several) above
human hexosaminidase A, sequence (P07686 122-311 limits assumed, one chain of several): as the sequence (P07686 122-311 limits assumed, one chain of several) above
human hexosaminidase A, sequence (P07686 50-107 partner limits assumed, one chain of several): as the sequence (P07686 50-107 partner limits assumed, one chain of several) above

[6] = target: T2, hexosaminidase from the bacterial species Streptomyces plicatus (Sp. Hex.) (Streptomyces plicatus, UniProt O85361); conditions: value carries reference superscript 56; cited from earlier work
T2 sequence (O85361 1-506): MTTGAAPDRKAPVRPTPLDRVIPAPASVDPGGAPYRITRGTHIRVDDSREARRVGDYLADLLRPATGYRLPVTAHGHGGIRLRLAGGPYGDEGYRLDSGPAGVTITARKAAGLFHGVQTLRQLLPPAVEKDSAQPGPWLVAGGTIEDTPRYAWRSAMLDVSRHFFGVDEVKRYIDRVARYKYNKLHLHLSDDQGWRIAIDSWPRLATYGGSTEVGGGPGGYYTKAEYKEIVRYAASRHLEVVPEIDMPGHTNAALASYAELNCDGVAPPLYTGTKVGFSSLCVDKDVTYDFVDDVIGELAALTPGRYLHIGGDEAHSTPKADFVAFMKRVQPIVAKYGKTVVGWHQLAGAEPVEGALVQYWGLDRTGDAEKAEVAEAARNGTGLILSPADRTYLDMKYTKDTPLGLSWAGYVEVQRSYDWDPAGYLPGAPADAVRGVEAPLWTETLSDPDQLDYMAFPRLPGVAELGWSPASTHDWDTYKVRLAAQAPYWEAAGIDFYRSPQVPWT

hexosaminidase A plus B = experiment: Brain hexosaminidase A plus B in NGT-treated mice; format: in vivo; conditions: 40 mg s.c. every 4 days for 15 days
β-mannosidase = experiment: Serum/plasma β-mannosidase in NGT-treated mice (MUM); format: in vivo
adult mice = experiment: Toxicity studies in adult mice; format: in vivo
hexosaminidase B [7] = target: T3, hexosaminidase B (Homo sapiens, UniProt P07686); experiment: Denaturation of hexosaminidase B by guanidine hydrochloride; format: biochemical
T3 construct: from tissue; host or cells: human placenta
T3 sequence (P07686 315-556 limits assumed): as the sequence (P07686 315-556 limits assumed, one chain of several) above
T3 sequence (P07686 122-311 limits assumed): as the sequence (P07686 122-311 limits assumed, one chain of several) above
T3 sequence (P07686 50-107 partner limits assumed): as the sequence (P07686 50-107 partner limits assumed, one chain of several) above

hexosaminidase B [8] = target: T3, hexosaminidase B; experiment: Heat denaturation of hexosaminidase B at 60° C.; format: biochemical; conditions: 60° C. up to 40 minutes, 2.4 μm NAG-thiazoline, MUG
[9] = test system: hexosaminidases A plus B (total Hex); experiment: Plasma hexosaminidase A plus B in NGT-treated mice (MUG); format: in vivo; conditions: CD1 mice, 10, 40 or 100 mg i.p., 2 days later
[10] = target: T2, hexosaminidase from the bacterial species Streptomyces plicatus (Sp. Hex.); experiment: Ki on bacterial hexosaminidase (MUG assay); format: biochemical
[11] = adult male CD1 mice, 40 mg/mouse i.v. or s.c. every four days up to 30 days

SMILES: CC(=O)NC1CN2CCC(O)C2C(O)C1O (stereo not drawn) [ACAS, 6-acetamido-6-deoxy-castanospermine]
hexosaminidase A activity ([1]; WT fibroblasts, all concentrations): decreased
hexosaminidase A activity ([1]; wild type cells, ACAS 4 days, MUGS): increased
hexosaminidase A activity ([2]; various concentrations of ACAS): increased
hexosaminidase A activity ([3]; various concentrations of ACAS): increased
hexosaminidase A activity ([4]; ITSD fibroblasts, all concentrations): decreased
hexosaminidase A activity ([4]; infantile Tay-Sachs cells, ACAS 4 days, MUGS): not

concentration at which cell lysis occurred [5]: > 200000 µM
SMILES: CC(=O)N[C@@H]1[C@@H](O)[C@@H](O)[C@@H](CO)O[C@H]1O [GalNAc, N-acetyl-β-D-galactosamine]

mode of inhibition of hexosaminidase A (human hexosaminidase A): competitive inhibitors
SMILES: CC1=NC2[C@@H](O)[C@@H](O)C(CO)O[C@H]2S1 (stereo partly drawn) [NAGal-thiazoline (2.6), N-acetyl galactosamine-thiazoline]
Ki [6]: 100 µM

SMILES: CC1=NC2[C@@H](O)[C@H](O)C(CO)O[C@H]2S1 (stereo partly drawn) [NGT, N-acetylglucosamine-thiazoline]
brain hexosaminidase A plus B (hexosaminidase A plus B): essentially unchanged
plasma β-mannosidase level (β-mannosidase; CD1 mice, 10, 40 or 100 mg i.p., 2 days later): unchanged
serum βD mannosidase levels versus control (β-mannosidase; mice, 10, 40 or 100 mg i.p., 3 to 4 days after treatment): generally the same
acute or sub-acute toxicity (adult mice; [11]): No acute or sub-acute toxicity was observed
histological examination of autopsied tissues (adult mice; [11]): no changes
signs of toxicity (adult mice; adult mice, 10, 40 or 100 mg i.p.): None of the mice treated with inhibitors showed any signs of toxicity
protection of hexosaminidase B against denaturation by guanidine hydrochloride (hexosaminidase B [7]): protect
increase in hexosaminidase A activity ([1]; WT fibroblasts, NGT 3 mM): two fold
mode of inhibition of hexosaminidase A (human hexosaminidase A): competitive inhibitors
activity of Hexosaminidase A/S (MUGS) ([2]; 2 days, varying concentrations): increased
hexosaminidase S activity ([2]; NGT): increased
hexosaminidase B activity after heat denaturation versus control (hexosaminidase B [8]): preserved greater hexosaminidase B activity than seen in the control
Ki [6]: 20 µM
hexosaminidase A and S activity ([3]; NGT): increased
MUGS hydrolysis with increasing concentration ([4]; ITSD cells): decline
plasma hexosaminidase A plus B (total Hex) level [9]: unchanged

Ki [10]: 38 µM
Ki (human hexosaminidase A; read-out: Ki Hex A): 90 µM
SMILES: CC(=O)NC1NCCC(O)C1O (stereo not drawn) [XylNAc-isofagomine•HCI (2.7), XylNAc-isofagomine•HCI]
